From US8946209B2, “Compositions and methods for treating and preventing urolithiasis and conditions associated therewith” (OptMed, Inc., priority 2009, dated 2015) come the findings set out here.

Each structure is given as a SMILES string.

Series [1] relates to human ureteral smooth muscle. Description: Relaxant effect of diazepam on EFS-induced contraction of human ureteral muscle rings (Example 3). Type of series: cell-based. How it is done: (§1) Ureteral muscle rings obtained from women undergoing nephrectomy or ureteral muscle strips harvested from adult male Wistar rats (n=8 samples of each) were mounted in 5 mL organ baths containing Krebs-Henseleit solution. The organ baths were kept at 37±1° C. and continuously aerated with 95% O2-5% CO2. After 60 minutes of equilibration, smooth muscle samples were exposed to 80 or 30 mM KCl (human and rat, respectively) to assess their viability. After washout and 30 additional minutes of equilibration, electrical field stimulation (EFS) was started. […] Time-matched controls were obtained exposing tissues to a solution of drug vehicle without diazepam (DMSO in distilled water). At the end of the experiment, the maximal relaxant capacities of each tissue were determined by exposure to 10 μM forskolin.

For series [2], the system named is rat ureteral smooth muscle. Description: Relaxant effect of diazepam on EFS-induced contraction of rat ureteral muscle strips (Example 3). Type of series: cell-based, Wistar rats. On the procedure:
as §1

One may read the Emax as the maximal effect, on the per cent scale that the assay sets. Turning to `CN1C(=O)CN=C(c2ccccc2)c2cc(Cl)ccc21` [diazepam, 7-chloro-1,3-dihydro-1-methyl-5-phenyl-2H-1,4-benzodiazepin-2-one], the Emax stood at 98.4 ± 0.2% in series [1] (Homo sapiens, read-out: maximal relaxant effect (Emax), of the basal response to EFS) and 67.4 ± 5% in series [2] (read-out: maximal relaxant effect (Emax), of the basal response to EFS). The IC50 in series [1] (Homo sapiens, read-out: pIC50 for inhibition of EFS-induced contraction (converted)) was 4.47 µM; in series [2] (read-out: pIC50 for inhibition of EFS-induced contraction (converted)), 1.12 µM. In series [1] (human ureter, following total inhibition of tissue contraction by diazepam), the “restoration of baseline EFS-induced contractility after washout” value is given as “restored after 3 washouts”.
